Experimental data published in ChEMBL document CHEMBL1152058, “Configurational variants of hydroxyphenylkainoid: their potent depolarizing activities in the rat central nervous system” (1992).

Organism: Rattus norvegicus
Test: Compound was evaluated for its depolarizing activity in the isolated rat spinal cord and the relative potency was determined
Assay type: functional
With O=C(O)C[C@H]1[C@@H](C(=O)O)NC[C@@H]1c1ccccc1O the Relative potency was 2.
N[C@@H](CCC(=O)O)C(=O)O [GLUTAMIC ACID] showed a Relative potency of 1.
Molecule O=C(O)C[C@@H]1[C@@H](C(=O)O)NC[C@@H]1c1ccccc1O has a Relative potency of 300.
For O=C(O)C[C@H]1[C@@H](C(=O)O)NC[C@H]1c1ccccc1O, the Relative potency was 0.5.
O=C(O)C[C@@H]1[C@@H](C(=O)O)NC[C@H]1c1ccccc1O showed a Relative potency of 0.5.
Molecule C=C(C)[C@H]1CN[C@H](C(=O)O)[C@H]1CC(=O)O [KAINIC ACID] has a Relative potency of 150.
